The source of these data is article PMC10810011 (Expert opinion on drug delivery, 2023).

One data set has as its target T1, Muscarinic M2 (Homo sapiens, UniProt P08172).
T1 sequence (P08172 1-466): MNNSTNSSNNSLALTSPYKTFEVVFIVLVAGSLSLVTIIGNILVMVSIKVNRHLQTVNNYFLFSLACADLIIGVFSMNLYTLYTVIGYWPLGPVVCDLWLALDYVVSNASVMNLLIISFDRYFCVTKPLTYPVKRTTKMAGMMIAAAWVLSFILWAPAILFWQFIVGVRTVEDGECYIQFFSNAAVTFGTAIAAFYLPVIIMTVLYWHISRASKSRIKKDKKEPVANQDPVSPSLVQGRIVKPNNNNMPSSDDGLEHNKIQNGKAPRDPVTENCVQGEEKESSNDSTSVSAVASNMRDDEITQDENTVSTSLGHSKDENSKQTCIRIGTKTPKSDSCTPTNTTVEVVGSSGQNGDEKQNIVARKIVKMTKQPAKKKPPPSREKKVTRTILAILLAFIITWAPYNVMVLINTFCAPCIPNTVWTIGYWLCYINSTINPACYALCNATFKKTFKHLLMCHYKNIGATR
Put plainly: InVEST radioligand filter binding, Muscarinic M2. The settings on record: read-out: IC50 (M) of reference compound, tested in parallel.

Another data set deals with T2, AHR-activation (Homo sapiens, UniProt P35869).
T2 sequence (P35869 11-848): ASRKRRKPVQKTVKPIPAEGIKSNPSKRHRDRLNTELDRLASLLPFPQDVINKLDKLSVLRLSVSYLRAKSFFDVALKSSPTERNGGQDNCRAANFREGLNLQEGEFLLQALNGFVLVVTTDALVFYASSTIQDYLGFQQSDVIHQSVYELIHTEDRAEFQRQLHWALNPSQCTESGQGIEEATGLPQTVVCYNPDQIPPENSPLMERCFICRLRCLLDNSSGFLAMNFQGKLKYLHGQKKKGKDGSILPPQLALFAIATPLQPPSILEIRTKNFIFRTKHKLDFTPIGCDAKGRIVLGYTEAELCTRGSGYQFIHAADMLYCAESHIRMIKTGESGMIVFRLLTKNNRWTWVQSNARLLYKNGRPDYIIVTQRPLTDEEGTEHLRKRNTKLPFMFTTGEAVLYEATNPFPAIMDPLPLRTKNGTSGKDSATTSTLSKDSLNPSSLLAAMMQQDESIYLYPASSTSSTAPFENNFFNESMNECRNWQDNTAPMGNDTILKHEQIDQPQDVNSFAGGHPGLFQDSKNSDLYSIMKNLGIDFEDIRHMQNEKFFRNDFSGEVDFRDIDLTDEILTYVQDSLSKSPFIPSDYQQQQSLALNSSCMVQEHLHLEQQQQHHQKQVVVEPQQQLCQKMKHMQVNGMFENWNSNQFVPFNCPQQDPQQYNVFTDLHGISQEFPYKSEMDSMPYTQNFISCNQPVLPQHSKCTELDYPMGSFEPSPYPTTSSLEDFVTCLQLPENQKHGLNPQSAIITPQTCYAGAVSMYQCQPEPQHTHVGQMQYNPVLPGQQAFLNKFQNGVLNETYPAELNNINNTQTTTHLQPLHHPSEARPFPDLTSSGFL

For the next data set, the target named is 5-HT1B (Homo sapiens, UniProt P28222). In words: InVEST radioligand filter binding, 5-HT1B.
Chain of 5-HT1B (P28222 whole entry): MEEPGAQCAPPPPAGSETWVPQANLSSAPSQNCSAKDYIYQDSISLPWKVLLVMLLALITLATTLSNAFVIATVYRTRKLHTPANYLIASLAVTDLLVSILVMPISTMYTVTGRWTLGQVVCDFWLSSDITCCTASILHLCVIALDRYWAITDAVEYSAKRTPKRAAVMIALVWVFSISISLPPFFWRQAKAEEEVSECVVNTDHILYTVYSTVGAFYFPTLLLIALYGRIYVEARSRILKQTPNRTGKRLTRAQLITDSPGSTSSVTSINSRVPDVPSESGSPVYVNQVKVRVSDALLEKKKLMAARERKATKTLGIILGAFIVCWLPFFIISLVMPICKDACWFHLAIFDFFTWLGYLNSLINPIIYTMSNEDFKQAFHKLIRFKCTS
The next data set has as its target T3, 5-HT3 (Homo sapiens, UniProt P46098).
T3 sequence (P46098 24-478): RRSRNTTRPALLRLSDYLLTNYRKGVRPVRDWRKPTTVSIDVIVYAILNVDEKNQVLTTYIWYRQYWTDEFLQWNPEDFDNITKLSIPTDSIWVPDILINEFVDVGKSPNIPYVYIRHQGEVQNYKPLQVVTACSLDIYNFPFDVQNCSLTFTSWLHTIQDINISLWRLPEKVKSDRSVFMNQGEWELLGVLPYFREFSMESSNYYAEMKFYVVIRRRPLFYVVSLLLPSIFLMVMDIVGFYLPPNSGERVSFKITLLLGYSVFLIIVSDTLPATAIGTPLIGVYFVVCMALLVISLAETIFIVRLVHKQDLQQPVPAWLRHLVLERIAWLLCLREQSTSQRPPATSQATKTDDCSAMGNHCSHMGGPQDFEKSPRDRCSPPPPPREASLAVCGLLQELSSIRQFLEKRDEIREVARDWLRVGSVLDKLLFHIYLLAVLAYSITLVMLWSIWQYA
Put plainly: InVEST radioligand filter binding, ion channel 5-HT3. Conditions: read-out: IC50 (M) of reference compound, tested in parallel.

Another data set addresses PDE3A (Homo sapiens, UniProt Q14432). In words: InVEST enzymatic activity, PDE3A. Type of data set: biochemical. Conditions: read-out: IC50 (M) of reference compound, tested in parallel.
The next data set deals with PDE4A (Homo sapiens, UniProt P27815). Put plainly: InVEST enzymatic activity, PDE4A. Type of data set: biochemical. Conditions: read-out: IC50 (M) of reference compound, tested in parallel.
Chain of PDE4A (P27815 whole entry): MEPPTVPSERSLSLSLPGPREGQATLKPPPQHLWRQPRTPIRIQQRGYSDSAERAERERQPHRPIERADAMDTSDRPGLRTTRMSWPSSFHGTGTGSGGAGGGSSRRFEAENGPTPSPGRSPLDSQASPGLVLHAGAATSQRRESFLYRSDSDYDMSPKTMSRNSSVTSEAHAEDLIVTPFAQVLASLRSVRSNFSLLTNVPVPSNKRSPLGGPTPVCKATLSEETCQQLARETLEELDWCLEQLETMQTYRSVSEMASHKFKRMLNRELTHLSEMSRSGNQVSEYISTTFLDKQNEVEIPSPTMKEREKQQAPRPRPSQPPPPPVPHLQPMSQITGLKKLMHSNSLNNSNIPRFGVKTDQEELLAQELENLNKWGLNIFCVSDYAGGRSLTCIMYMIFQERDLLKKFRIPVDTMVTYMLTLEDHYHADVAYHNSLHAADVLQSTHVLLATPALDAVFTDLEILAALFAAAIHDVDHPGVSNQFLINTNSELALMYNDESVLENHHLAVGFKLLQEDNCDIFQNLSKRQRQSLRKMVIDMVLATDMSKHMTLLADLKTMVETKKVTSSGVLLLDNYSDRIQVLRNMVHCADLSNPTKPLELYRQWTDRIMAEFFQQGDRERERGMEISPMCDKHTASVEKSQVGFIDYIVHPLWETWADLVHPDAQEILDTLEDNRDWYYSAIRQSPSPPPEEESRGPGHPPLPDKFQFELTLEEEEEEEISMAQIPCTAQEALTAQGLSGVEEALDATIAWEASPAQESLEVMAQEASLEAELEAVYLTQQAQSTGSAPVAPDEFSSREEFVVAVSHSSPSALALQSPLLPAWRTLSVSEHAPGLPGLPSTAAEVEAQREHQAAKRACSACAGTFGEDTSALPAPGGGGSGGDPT
The next data set deals with T4, alpha2A adrenergic (Homo sapiens, UniProt P08913).
T4 sequence (P08913 1-465): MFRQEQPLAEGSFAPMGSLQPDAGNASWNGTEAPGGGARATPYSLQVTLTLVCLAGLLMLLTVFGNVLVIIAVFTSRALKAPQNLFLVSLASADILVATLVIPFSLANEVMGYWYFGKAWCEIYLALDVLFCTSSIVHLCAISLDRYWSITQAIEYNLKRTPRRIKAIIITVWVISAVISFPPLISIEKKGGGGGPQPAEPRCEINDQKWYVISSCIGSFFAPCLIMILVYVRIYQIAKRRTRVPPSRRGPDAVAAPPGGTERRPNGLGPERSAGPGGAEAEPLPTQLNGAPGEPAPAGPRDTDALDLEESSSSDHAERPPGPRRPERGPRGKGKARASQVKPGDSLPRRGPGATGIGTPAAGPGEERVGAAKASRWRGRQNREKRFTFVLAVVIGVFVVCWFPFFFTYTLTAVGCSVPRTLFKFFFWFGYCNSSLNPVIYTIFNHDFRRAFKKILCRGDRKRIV
In words: InVEST radioligand filter binding, alpha2A adrenergic. The settings on record: read-out: IC50 (M) of reference compound, tested in parallel.

Another data set concerns the target Thrombin alpha (Homo sapiens, UniProt P00734). Put plainly: InVEST enzymatic activity, Thrombin alpha. Format: biochemical. Conditions: read-out: IC50 (M) of reference compound, tested in parallel.
In another data set the target is T5, CCK (Homo sapiens, UniProt P32238).
T5 sequence (P32238 1-428): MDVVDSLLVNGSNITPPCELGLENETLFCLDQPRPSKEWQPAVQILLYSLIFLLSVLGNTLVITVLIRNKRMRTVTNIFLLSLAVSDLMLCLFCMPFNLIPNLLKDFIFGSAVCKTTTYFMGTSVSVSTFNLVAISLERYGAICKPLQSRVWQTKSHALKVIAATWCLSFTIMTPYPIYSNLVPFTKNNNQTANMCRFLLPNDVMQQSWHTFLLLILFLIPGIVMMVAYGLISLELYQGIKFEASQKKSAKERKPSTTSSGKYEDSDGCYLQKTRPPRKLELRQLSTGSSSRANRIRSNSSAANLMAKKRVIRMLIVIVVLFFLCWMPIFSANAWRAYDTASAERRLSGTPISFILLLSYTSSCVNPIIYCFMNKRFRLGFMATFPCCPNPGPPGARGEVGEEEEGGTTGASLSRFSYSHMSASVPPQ
In words: InVEST radioligand filter binding, CCK.

The target in another data set is T6, AHR-inhibition (Homo sapiens, UniProt P35869).
T6 sequence (P35869 11-848): T2 sequence (P35869 11-848)
In words: InVEST fluorescence polarization binding/cell-based activity, AHR-inhibition. The settings on record: read-out: IC50 (M) of reference compound, + 10 nM FICZ, tested in parallel. For orientation: Fluorescence polarisation rises when a labelled molecule tumbles more slowly, as on binding a larger partner.

Counter-ions that a name gives are not always drawn.

Chain of PDE3A (Q14432 whole entry): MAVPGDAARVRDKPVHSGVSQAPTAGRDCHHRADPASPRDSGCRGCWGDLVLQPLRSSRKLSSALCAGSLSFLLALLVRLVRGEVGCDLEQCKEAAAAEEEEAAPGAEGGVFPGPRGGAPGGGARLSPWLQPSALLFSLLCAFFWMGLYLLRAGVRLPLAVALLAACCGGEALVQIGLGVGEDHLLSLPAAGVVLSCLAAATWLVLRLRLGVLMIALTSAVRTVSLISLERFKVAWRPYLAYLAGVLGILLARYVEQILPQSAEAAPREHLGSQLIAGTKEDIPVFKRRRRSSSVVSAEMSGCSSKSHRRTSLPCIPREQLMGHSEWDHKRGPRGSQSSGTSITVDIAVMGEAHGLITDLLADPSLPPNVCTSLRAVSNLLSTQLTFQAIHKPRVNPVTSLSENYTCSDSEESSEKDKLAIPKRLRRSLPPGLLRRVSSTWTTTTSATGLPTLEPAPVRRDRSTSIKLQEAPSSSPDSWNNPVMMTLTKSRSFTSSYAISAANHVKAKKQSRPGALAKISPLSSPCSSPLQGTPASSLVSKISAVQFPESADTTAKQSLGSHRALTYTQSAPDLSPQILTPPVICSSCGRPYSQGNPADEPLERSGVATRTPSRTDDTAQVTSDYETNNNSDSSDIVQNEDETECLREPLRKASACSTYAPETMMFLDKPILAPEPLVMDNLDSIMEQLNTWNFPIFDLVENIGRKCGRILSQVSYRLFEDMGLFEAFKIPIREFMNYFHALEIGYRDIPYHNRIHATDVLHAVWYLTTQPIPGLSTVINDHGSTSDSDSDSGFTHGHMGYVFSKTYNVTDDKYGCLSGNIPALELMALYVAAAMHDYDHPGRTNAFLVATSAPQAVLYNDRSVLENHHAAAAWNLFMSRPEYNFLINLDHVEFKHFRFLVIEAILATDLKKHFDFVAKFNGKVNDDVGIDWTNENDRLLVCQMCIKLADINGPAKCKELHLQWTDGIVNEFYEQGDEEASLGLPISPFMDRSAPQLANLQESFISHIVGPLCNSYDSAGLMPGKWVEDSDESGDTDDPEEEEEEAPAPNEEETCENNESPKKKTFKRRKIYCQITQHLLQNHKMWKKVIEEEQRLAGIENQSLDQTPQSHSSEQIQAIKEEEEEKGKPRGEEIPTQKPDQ

By IC50 is commonly meant the concentration that inhibits the measured activity by half. With `CCCN(CCC)CC1CCCCN1CCNC(=O)N1c2ccccc2C(=O)Nc2cccnc21` (stereo not shown) [AF-DX 384, reference compound], the IC50 at Muscarinic M2 came out at 1.79e-08 M.
Turning to `O=Cc1c2[nH]c3ccccc3c2cc2[nH]c3ccccc3c12` [FICZ], at AHR-activation, the IC50 came out at 10.5 nM.
Turning to `COc1ccc(NC(=O)c2ccc(-c3ccncc3)c(C)c2)cc1N1CCN(C)CC1` [GR125743, reference compound], the half-maximal inhibitory concentration (IC50) on 5-HT1B worked out at 4.85 nM.
In the case of `Cc1[nH]cnc1CCC(=O)c1cn(C)c2ccccc12` [GR 65630, reference compound], the IC50 at 5-HT3 stood at 1.09e-09 M.
With `CC(C)Cn1c(=O)n(C)c(=O)c2[nH]cnc21` [IBMX, reference compound], the 50% inhibitory concentration (IC50) on PDE3A came out at 2.21e-05 M; on PDE4A, 3e-05 M.
In the case of `COC1(C2=NCCN2)COc2ccccc2O1` (stereo not shown) [RX 821002, reference compound], the IC50 at alpha2A adrenergic is 1.15e-08 M.
With `CCOC(=O)c1ccc(OC(=O)CCCCCN=C(N)N)cc1` [gabexate mesylate, reference compound], the IC50 on Thrombin alpha came to 2.26e-06 M.
As for `CCCCCN(CCCCC)C(=O)C(CCC(=O)O)NC(=O)c1ccc(Cl)c(Cl)c1` (stereo not shown) [lorglumide, reference compound], on CCK, the IC50 was found to be 3.78 nM.
Turning to GNF-351 [reference compound], on AHR-inhibition, the IC50 was 2.9e-07 M.
